Calls of active or inactive are those of the source. The rule behind the calls is not given here.

These results are taken from ChEMBL document CHEMBL4334496, “Identification of a Unique Resorcylic Acid Lactone Derivative That Targets Both Lymphangiogenesis and Angiogenesis” (J Med Chem, 2019).

Data set [1] deals with T1, Vascular endothelial growth factor receptor 3 (Homo sapiens, UniProt P35916).
Description: Inhibition of TEL-fused VEGFR3 (unknown origin) expressed in mouse BA/F3 cells assessed as inhibition of cell growth incubated for 72 hrs by Cell-titer-Glo assay
A further data set can be described thus: in vitro. The settings on record: mouse, BA/F3 cells.
Data set [2] concerns the target T2, Receptor-type tyrosine-protein kinase FLT3 (Homo sapiens, UniProt P36888).
T2 sequence (P36888 whole entry): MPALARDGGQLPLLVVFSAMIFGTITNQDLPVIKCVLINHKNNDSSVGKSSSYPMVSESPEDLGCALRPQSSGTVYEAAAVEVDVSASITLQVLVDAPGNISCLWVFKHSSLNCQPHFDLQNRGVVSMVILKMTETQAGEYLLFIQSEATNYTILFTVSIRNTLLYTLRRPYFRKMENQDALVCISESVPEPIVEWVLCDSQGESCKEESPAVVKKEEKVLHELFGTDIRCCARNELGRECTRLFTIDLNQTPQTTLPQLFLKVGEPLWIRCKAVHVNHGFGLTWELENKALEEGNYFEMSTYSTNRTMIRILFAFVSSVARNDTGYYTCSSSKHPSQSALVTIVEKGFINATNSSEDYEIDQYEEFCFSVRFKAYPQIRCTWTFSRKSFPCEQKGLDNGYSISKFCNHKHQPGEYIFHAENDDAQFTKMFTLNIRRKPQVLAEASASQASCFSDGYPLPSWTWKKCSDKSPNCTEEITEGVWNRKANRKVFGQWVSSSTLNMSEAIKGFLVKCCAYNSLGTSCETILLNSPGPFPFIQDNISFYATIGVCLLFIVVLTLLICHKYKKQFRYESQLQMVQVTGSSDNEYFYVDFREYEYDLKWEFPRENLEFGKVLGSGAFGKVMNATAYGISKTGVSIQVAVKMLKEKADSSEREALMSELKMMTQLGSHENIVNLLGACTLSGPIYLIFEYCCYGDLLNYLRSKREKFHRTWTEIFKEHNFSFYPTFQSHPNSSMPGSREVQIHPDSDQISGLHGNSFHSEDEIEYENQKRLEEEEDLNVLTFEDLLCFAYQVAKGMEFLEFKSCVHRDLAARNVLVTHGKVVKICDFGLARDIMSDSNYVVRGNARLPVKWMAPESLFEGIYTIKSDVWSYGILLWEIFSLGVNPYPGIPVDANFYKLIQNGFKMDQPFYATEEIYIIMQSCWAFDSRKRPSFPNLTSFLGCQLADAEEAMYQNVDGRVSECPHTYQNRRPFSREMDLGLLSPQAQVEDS

Data set [3] has as its target T1, Vascular endothelial growth factor receptor 3. This is another data set of the same source.
Description: Inhibition of human VEGFR3 using poly[Glu:Tyr] (4:1) substrate and [gamma-33P]-ATP by radiometric biochemical kinase assay
Data set [4] deals with T3, Vascular endothelial growth factor receptor 2 (Homo sapiens, UniProt P35968).
Description: Inhibition of TEL-fused VEGFR2 (unknown origin) expressed in mouse BA/F3 cells assessed as inhibition of cell growth incubated for 72 hrs by Cell-titer-Glo assay
The target in data set [5] is T3, Vascular endothelial growth factor receptor 2. This is another data set of the same source.
Description: Inhibition of human VEGFR2 using poly[Glu:Tyr] (4:1) substrate and [gamma-33P]-ATP by radiometric biochemical kinase assay
For data set [6], the target named is Receptor-type tyrosine-protein kinase FLT3 (Homo sapiens) (UniProt P36888).
Description: Inhibition of TEL-fused FLT3 (unknown origin) expressed in mouse BA/F3 cells assessed as inhibition of cell growth incubated for 72 hrs by Cell-titer-Glo assay
Data set [7] deals with HUVEC. Description: Anti-angiogenesis activity in HUVEC assessed as inhibition of VEGF-A-induced tube formation at 0.1 uM incubated for 6 hrs by tube formation assay. The data set is classed as functional, cell-based. Particulars: Homo sapiens.
Data set [8] is described as follows: Toxicity in C57BL/6 mouse assessed as induction of clinically detectable corneal-epitheliopathy at 200 nM administered topically every 12 hrs for 7 days by immunohistochemical analysis. The settings on record: in vivo, topical_or_ocular, 0.2 µM.
The test system of data set [9] is HUVEC. Nature of the data set: Anti-angiogenesis activity in truncated-FOSB transfected HUVEC cells model of pseudomyogenic-hemangioendothelioma assessed as inhibition of tube formation up to 5 uM. The data set is classed as functional, cell-based. Particulars: Homo sapiens.
The subject of data set [10] is Mus musculus. Nature of the data set: Anti-lymphangiogenic activity in C57BL/6 mouse assessed as suppression of suture-induced corneal lymphangiogenesis at 200 nM administered topically every 12 hrs for 7 days by immunohistochemical analysis. The data set is classed as functional, organism-based.
Data set [11] deals with HUVEC. Nature of the data set: Anti-angiogenesis activity in HUVEC assessed as inhibition of VEGF-A-induced cell migration at 0.1 uM incubated for 12 hrs by wound healing assay. The data set is classed as functional, cell-based. Particulars: Homo sapiens.
For data set [12], the species on record is Homo sapiens. Description: Anti-lymphangiogenic activity in HDLEC assessed as reduction in growth factor cocktail-induced lymphatic sprouting at 10 uM incubated for 4 days by Hoechst 33342 and phalloidin staining based microfluidic platform assay relative to control. The data set is classed as functional.
Data set [13] is filed under the species Homo sapiens. Description: Anti-lymphangiogenic activity in HDLEC assessed as reduction in human MIAPaCa-2 cells-induced lymphatic sprouting at 1 to 10 uM incubated for 4 days by Hoechst 33342 and phalloidin staining based microfluidic platform assay relative to control. The data set is classed as functional, cell-based.
In data set [14] the target is T4, Vascular endothelial growth factor receptor 1 (Homo sapiens, UniProt P17948). Nature of the data set: Inhibition of human VEGFR1 assessed as enzyme residual activity at 10 uM using poly[Glu:Tyr] (4:1) substrate and [gamma-33P]-ATP by radiometric biochemical kinase assay relative to control.
Data set [15] deals with MOLM-14. Nature of the data set: Induction of apoptosis in human MOLM14 cells at 0.1 uM incubated for 24 hrs by propidium iodide and annexin-V staining based flow cytometry. The data set is classed as functional, cell-based.
Data set [16] addresses Mast/stem cell growth factor receptor Kit (Homo sapiens, UniProt P10721). Nature of the data set: Inhibition of c-Kit phosphorylation in human TF1 cells assessed as at 0.1 to 0.3 uM incubated for 2 hrs by Western blot analysis. The data set is classed as cell-based.
The target of data set [17] is T4, Vascular endothelial growth factor receptor 1. Description: Inhibition of human VEGFR1 using poly[Glu:Tyr] (4:1) substrate and [gamma-33P]-ATP by radiometric biochemical kinase assay.
Data set [18] is filed under the species Homo sapiens. Nature of the data set: Anti-lymphangiogenic activity in HDLEC assessed as reduction in human A375 cells-induced lymphatic sprouting at 1 to 10 uM incubated for 4 days by Hoechst 33342 and phalloidin staining based microfluidic platform assay relative to control. The data set is classed as functional, cell-based.
Data set [19] addresses c-Kit (Mast/stem cell growth factor receptor Kit) (Homo sapiens, UniProt P10721). Nature of the data set: Inhibition of human c-Kit assessed as enzyme residual activity at 10 uM using poly[Glu:Tyr] (4:1) substrate and [gamma-33P]-ATP by radiometric biochemical kinase assay relative to control. The settings on record: probe poly[Glu:Tyr] (4:1), read-out: Activity.
Data set [20] concerns MOLM-14. Description: Induction of apoptosis in human MOLM14 cells assessed as induction of caspase-3 cleavage at 0.1 to 1 uM incubated for 24 hrs by Western blot analysis. The data set is classed as functional, cell-based.
Data set [21] has as its system MV4-11. Description: Induction of apoptosis in human MV4-11 cells at 0.1 uM incubated for 24 hrs by propidium iodide and annexin-V staining based flow cytometry. The data set is classed as functional, cell-based.
For data set [22], the system named is MOLM-14. Nature of the data set: Induction of apoptosis in human MOLM14 cells assessed as induction of PARP cleavage at 0.1 to 1 uM incubated for 24 hrs by Western blot analysis. The data set is classed as functional, cell-based.
Data set [23] has as its system Mus musculus. Nature of the data set: Anti-angiogenesis activity in C57BL/6 mouse assessed as suppression of suture-induced corneal angiogenesis at 200 nM administered topically every 12 hrs for 7 days by immunohistochemical analysis. The data set is classed as functional, organism-based.
The test system of data set [24] is HUVEC. Nature of the data set: Anti-angiogenesis activity in truncated-FOSB transfected HUVEC cells model of pseudomyogenic-hemangioendothelioma assessed as inhibition of cell proliferation. Particulars: Homo sapiens. The data set is classed as functional, cell-based.
The subject of data set [25] is MV4-11. Description: Induction of apoptosis in human MV4-11 cells assessed as induction of caspase-3 cleavage at 0.1 to 1 uM incubated for 24 hrs by Western blot analysis. The data set is classed as functional, cell-based.
In data set [26] the test system is HUVEC. Description: Anti-angiogenesis activity in truncated-FOSB transfected HUVEC cells model of pseudomyogenic-hemangioendothelioma assessed as inhibition of tube formation. The data set is classed as functional, cell-based. The settings on record: Homo sapiens.
The test system of data set [27] is MV4-11. Description: Induction of apoptosis in human MV4-11 cells assessed as induction of PARP cleavage at 0.1 to 1 uM incubated for 24 hrs by Western blot analysis. The data set is classed as functional, cell-based.

T1 sequence (P35916 whole entry): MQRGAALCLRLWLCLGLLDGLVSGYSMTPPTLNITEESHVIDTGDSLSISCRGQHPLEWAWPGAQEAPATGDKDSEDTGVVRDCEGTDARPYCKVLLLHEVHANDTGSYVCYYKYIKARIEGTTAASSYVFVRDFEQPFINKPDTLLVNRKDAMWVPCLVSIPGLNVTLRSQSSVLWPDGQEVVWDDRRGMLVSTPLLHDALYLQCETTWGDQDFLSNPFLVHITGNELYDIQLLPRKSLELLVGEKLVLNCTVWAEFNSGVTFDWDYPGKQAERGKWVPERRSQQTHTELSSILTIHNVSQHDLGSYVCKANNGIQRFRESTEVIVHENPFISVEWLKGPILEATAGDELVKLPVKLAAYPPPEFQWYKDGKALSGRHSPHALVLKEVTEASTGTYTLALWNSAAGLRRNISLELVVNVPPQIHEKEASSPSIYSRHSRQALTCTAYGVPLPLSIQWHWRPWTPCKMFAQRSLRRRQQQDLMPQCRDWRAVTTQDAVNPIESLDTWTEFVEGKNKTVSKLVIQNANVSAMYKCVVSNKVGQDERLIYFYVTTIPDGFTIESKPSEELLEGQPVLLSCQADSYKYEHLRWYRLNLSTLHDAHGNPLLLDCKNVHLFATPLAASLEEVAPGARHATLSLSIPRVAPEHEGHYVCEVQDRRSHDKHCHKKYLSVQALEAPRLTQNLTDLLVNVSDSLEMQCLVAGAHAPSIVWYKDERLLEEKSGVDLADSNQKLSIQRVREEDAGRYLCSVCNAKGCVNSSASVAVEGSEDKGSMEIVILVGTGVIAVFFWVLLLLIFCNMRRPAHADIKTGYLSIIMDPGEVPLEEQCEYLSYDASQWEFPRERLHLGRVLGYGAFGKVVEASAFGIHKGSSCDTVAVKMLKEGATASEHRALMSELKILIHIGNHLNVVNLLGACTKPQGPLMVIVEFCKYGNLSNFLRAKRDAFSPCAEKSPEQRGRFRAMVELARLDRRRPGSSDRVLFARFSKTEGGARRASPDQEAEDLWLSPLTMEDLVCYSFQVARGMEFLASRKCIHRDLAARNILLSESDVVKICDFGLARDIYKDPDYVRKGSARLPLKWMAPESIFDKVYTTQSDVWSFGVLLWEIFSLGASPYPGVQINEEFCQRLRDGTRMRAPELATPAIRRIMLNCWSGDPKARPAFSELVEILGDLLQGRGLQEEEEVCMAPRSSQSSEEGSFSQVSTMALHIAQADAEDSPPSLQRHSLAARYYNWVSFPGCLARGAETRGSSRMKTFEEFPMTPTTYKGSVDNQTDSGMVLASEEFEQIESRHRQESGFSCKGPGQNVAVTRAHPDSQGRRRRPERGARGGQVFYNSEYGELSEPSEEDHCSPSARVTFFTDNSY
T3 sequence (P35968 whole entry): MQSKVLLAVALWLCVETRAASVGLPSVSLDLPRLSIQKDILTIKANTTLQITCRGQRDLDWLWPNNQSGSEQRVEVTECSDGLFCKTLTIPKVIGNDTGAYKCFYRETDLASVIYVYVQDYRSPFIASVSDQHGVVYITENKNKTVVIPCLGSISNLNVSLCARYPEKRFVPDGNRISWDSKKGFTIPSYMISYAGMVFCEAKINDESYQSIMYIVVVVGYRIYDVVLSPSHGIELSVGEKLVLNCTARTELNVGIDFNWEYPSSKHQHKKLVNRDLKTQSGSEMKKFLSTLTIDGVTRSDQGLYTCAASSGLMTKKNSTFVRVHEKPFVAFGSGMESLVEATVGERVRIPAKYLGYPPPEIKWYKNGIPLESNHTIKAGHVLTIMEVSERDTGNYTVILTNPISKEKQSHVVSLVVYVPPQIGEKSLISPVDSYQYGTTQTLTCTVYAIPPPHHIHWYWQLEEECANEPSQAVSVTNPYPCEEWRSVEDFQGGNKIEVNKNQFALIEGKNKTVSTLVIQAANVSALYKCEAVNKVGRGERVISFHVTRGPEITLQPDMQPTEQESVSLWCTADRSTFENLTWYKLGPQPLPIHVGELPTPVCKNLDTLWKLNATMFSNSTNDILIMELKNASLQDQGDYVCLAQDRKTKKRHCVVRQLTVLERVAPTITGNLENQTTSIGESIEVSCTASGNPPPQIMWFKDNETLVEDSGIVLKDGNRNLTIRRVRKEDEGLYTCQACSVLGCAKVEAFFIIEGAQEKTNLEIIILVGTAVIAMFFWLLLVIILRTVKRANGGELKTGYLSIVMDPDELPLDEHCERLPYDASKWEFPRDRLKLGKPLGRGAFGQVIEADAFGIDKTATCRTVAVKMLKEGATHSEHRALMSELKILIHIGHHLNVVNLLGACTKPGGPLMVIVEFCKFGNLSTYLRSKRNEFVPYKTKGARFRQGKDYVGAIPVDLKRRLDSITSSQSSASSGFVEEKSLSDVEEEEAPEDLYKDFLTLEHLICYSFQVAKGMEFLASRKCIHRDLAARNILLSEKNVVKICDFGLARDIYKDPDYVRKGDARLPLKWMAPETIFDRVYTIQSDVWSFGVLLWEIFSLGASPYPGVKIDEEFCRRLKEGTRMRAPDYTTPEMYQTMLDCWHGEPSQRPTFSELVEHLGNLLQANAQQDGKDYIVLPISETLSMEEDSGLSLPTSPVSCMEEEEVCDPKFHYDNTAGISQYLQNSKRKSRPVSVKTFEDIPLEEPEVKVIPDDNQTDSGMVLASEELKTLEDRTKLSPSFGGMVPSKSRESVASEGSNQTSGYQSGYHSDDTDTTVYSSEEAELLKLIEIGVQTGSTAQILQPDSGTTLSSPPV
T4 sequence (P17948 whole entry): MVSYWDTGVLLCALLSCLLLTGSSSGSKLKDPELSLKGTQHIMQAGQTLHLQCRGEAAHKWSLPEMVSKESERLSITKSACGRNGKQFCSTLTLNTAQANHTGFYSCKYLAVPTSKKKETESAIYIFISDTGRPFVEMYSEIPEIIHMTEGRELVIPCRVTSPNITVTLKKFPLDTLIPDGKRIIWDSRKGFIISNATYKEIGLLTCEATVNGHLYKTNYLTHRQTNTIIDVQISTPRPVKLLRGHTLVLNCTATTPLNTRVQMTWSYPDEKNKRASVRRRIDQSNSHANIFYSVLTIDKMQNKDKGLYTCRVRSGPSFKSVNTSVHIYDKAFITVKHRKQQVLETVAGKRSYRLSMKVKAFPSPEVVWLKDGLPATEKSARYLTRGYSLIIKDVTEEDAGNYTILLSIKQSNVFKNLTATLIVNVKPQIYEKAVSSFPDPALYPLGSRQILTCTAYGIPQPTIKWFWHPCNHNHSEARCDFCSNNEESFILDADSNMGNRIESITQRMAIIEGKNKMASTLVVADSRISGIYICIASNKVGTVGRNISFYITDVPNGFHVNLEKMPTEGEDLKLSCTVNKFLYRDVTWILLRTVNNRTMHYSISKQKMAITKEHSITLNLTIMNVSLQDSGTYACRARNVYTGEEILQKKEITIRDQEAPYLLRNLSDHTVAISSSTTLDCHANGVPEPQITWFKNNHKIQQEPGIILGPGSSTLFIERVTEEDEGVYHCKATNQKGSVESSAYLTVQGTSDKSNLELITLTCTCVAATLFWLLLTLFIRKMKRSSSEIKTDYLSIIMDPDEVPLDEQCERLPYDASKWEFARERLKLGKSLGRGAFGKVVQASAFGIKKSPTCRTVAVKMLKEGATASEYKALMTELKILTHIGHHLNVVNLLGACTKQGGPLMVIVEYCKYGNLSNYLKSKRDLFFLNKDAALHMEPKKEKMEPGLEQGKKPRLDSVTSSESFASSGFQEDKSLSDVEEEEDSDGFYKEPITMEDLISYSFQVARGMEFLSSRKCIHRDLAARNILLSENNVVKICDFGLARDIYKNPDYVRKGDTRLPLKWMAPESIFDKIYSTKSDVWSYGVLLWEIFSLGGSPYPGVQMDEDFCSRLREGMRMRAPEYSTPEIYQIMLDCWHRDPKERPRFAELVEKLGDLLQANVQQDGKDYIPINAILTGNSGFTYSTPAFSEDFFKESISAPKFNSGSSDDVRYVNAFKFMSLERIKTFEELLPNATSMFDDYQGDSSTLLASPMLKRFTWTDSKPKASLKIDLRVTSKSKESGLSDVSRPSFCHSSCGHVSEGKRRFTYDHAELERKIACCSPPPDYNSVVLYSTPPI
Sequence of c-Kit (Mast/stem cell growth factor receptor Kit) (P10721 whole entry): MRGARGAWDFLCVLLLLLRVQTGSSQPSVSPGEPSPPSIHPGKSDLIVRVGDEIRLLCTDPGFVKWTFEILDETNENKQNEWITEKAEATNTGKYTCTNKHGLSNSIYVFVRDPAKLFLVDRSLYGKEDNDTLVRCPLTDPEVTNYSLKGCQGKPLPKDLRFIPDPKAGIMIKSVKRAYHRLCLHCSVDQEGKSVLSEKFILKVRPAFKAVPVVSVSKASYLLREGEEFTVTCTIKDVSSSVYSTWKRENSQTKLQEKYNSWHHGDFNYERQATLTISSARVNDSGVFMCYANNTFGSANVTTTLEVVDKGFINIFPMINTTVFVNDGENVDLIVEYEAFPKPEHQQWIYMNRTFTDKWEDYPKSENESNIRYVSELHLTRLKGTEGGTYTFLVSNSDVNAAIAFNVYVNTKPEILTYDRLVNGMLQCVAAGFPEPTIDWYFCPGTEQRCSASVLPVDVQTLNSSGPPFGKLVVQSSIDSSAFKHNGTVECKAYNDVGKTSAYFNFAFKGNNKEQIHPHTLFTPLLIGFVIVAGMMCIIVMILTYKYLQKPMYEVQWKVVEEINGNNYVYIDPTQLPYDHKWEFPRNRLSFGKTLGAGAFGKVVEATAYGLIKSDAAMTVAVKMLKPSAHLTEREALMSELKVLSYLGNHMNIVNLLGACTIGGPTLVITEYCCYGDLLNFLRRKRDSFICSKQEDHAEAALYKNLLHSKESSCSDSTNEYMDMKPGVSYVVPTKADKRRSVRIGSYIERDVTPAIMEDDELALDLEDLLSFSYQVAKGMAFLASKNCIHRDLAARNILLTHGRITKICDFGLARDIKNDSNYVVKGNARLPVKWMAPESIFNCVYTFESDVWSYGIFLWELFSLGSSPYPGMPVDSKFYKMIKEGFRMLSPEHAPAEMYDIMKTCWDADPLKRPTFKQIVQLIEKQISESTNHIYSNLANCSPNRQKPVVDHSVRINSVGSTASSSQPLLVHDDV
Sequence of Mast/stem cell growth factor receptor Kit (P10721 whole entry): as above
Description for in vitro: Growth inhibition of mouse BA/F3 cells assessed as inhibition of cell growth incubated for 72 hrs by Cell-titer-Glo assay

Regarding `COc1cc(O)c2c(c1)CCC[C@H](O)[C@H](O)C(=O)/C=C\C[C@H](C)OC2=O`, the GI50 in data set [1] came out at 0.05 µM; in data set [4], 0.14 µM; in data set [6], 0.27 µM. For the same molecule, growth in “in vitro” was halved (GI50 at 72 h) at 1.7 µM. The IC50 stood at 0.0018 µM in [2], 0.00073 µM in data set [3] and 0.0029 µM in [5].

Consider `COc1cc(O)c2c(c1)-c1cccc(c1)[C@H](O)[C@H](O)C(=O)/C=C\C[C@H](C)OC2=O`, for which halving of growth in “in vitro” (GI50 at 72 h) required 12 µM.

`COc1cc(O)c2c(c1)-c1cccc(c1)[C@@H](O)[C@H](O)C(=O)C/C=C/[C@H](C)OC2=O` came in with a GI50 at 72 h in “in vitro” of 11 µM.

Regarding `COc1cc(O)c2c(c1)-c1cccc(c1)CCC(=O)/C=C\C[C@H](C)OC2=O`, the GI50 at 72 h in “in vitro” is > 25 µM.

Regarding `CCn1c(N)c(C(=O)NC)c(=O)c2ccc(C#C[C@@](C)(O)COC)nc21`, the GI50 in data set [1] came to 0.059 µM; in data set [4], 4.6 µM; in [6] it was 18 µM. In addition, the GI50 at 72 h in “in vitro” is > 25 µM. The values for the IC50 in [2], in data set [3] and in data set [5] were 0.29 µM, 0.0012 µM and 0.067 µM, respectively. The inhibition result in the data set on HUVEC [7] and in the data set with HUVEC [11] was “inactive” throughout. For the same molecule, the Activity result in [8] is “Non-Toxic”. The Activity result in the data set with HUVEC [9] was “inactive”. In addition, the Activity result in the data set with Mus musculus [10] is “Active”. Besides, the fold change (FC) in the data set listed under Homo sapiens [12] stood at 2.

`COc1cc(O)c2c(c1)-c1cccc(c1)[C@@H](O)[C@H](O)[C@H](O)/C=C\C[C@H](C)OC2=O`: the GI50 at 72 h in “in vitro” was > 25 µM.

Consider `COc1cc(O)c2c(c1)-c1cccc(c1)[C@H](O)[C@@H](O)C(=O)CCC[C@H](C)OC2=O`, for which, in the data set “in vitro”, the GI50 at 72 h is > 25 µM.

On to `COc1cc(O)c2c(c1)-c1cccc(c1)[C@H](O)[C@H](O)C(=O)CCC[C@H](C)OC2=O`, for which the GI50 at 72 h in “in vitro” was > 25 µM.

As for `COc1cc(O)c2c(c1)-c1cccc(c1)[C@@H](O)[C@H](O)C(=O)/C=C\C[C@H](C)OC2=O`, the Activity entry in the data set filed under Homo sapiens [13], in the data set with MOLM-14 [15], in the data set filed under Homo sapiens [18], with MOLM-14 [20], with MV4-11 [21] and in the data set on MOLM-14 [22] was “Active” in each case. Further, the Activity entry with Mus musculus [23], in the data set with MV4-11 [25], in the data set with Mus musculus [10] and in the data set on MV4-11 [27] was “Active” each time. Further, the Activity in data set [14] was 36.6%; with HUVEC [24], “Dose-dependent effect”; in data set [8] it was “Non-Toxic”; in the data set on HUVEC [26] it was “Dose-dependent effect”. Also, the “inhibition (INH)” value in [16] is “Not Active”. Further, in the data set “in vitro”, the GI50 at 72 h came to 10 µM. The inhibition result in the data set on HUVEC [7] and with HUVEC [11] was “Active” throughout. This molecule gave an IC50 in data set [17] of 0.845 µM. For the same molecule, the activity at 10 µM in data set [19] stood at 82.2%.

On to `COc1cc(O)c2c(c1)-c1cccc(c1)[C@@H](O)[C@H](O)[C@@H](N)/C=C\C[C@H](C)OC2=O`, for which the GI50 in data set [1], in [4] and in data set [6] was > 25 µM throughout. Moreover, the GI50 at 72 h in the data set “in vitro” was > 25 µM. Also, the IC50 in data set [3] and in data set [5] was > 10 µM each time.

Consider `C=C1/C=C\C[C@H](C)OC(=O)c2c(O)cc(OC)cc2-c2cccc(c2)[C@@H](O)[C@@H]1O`, for which the GI50 in [1] and in [4] was > 25 µM each time. Further, the GI50 at 72 h in “in vitro” was > 25 µM. Moreover, the IC50 in data set [3] and in [5] was > 10 µM each time.

As to `COc1cc(O)c2c(c1)-c1cccc(c1)[C@@H](O)[C@H](O)C(=O)CCC[C@H](C)OC2=O`, the GI50 at 72 h in “in vitro” was > 25 µM.

Take `COc1cc(O)c2c(c1)-c1cccc(c1)[C@H](O)[C@@H](O)C(=O)/C=C\C[C@H](C)OC2=O`: the GI50 at 72 h in the data set “in vitro” worked out at 17 µM. That is a double-digit micromolar value.
